Laboratory results from PubChem BioAssay (NCI).
“And” between values parts separate entries of the source, which are not always exact repeats. Equal entries are not always repeated.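 Five concentrations, 48 hours, 96-well plates. The concentration for 50% growth inhibition is given as GI50. TGI: concentration producing complete growth inhibition.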

What was measured:
Test in all cases: growth of human tumour cells (NCI), 48 h
SNB-75 CNS = test system: SNB-75 CNS
SF-268 CNS = test system: SF-268 CNS
SK-MEL-5 melanoma = test system: SK-MEL-5 melanoma
CCRF-CEM leukemia = test system: CCRF-CEM leukemia
SW-620 colon = test system: SW-620 colon
SK-MEL-2 melanoma = test system: SK-MEL-2 melanoma
OVCAR-4 ovarian = test system: OVCAR-4 ovarian
IGROV1 ovarian = test system: IGROV1 ovarian
MDA-MB-435 = test system: MDA-MB-435
HCC-2998 colon = test system: HCC-2998 colon

Row | Compound | GI50 (SNB-75 CNS) | TGI (SNB-75 CNS) | GI50 (SF-268 CNS) | TGI (SF-268 CNS) | GI50 (SK-MEL-5 melanoma) | TGI (SK-MEL-5 melanoma) | GI50 (CCRF-CEM leukemia) | TGI (CCRF-CEM leukemia) | GI50 (SW-620 colon) | TGI (SW-620 colon) | GI50 (SK-MEL-2 melanoma) | TGI (SK-MEL-2 melanoma) | GI50 (OVCAR-4 ovarian) | TGI (OVCAR-4 ovarian) | GI50 (IGROV1 ovarian) | TGI (IGROV1 ovarian) | GI50 (MDA-MB-435) | TGI (MDA-MB-435) | GI50 (HCC-2998 colon) | TGI (HCC-2998 colon)
1 | COC(=O)c1cc2c3ccccc3n3c(=O)c4cc5ccccc5nc4c(n1)c23 | > 100 µM | > 100 µM | > 100 µM | > 100 µM | > 100 µM | > 100 µM | > 100 µM | > 100 µM | > 100 µM | > 100 µM | > 100 µM | > 100 µM | > 100 µM | > 100 µM | > 100 µM | > 100 µM | > 100 µM | > 100 µM | > 100 µM | > 100 µM
2 | C#CC1(OC(C)=O)CCC2C3CC=C4C=C(OC(C)=O)CCC4(C)C3CCC21C (configuration not stated) | – | > 100 µM | – | 48.4 µM | – | 34.1 µM | – | 30.5 µM | – | 49.3 µM | – | 41.1 µM | – | 72.2 µM | – | 35.9 µM | – | 45.2 µM | – | 32.9 µM
3 | COc1cc(N2CCC(N3CCN(C)CC3)CC2)ccc1Nc1ncnc(Nc2ccccc2S(=O)(=O)C(C)C)n1 | 3.63 µM | 15.9 µM | 4.39 µM | 28.7 µM | 4.62 µM | 18.1 µM | 5.84 µM | > 42.7 µM | 3.68 µM | 39.5 µM | 5.83 µM | 16.3 µM | 8.93 µM | 42.2 µM | 2.64 µM | 7.5 µM | 2.6 µM | 10.2 µM | 13.2 µM | 36.9 µM
4 | CCCN(CCC)c1ccc(/C=C/c2ccc3cc(OCC)ccc3n2)cc1 | 54.7 µM | > 100 µM | > 100 µM | > 100 µM | 23.6 µM | > 100 µM | 54.3 µM | > 100 µM | > 100 µM | > 100 µM | > 100 µM | > 100 µM | 72.7 µM | > 100 µM | > 100 µM | > 100 µM | > 100 µM | > 100 µM | > 100 µM | > 100 µM
5 | C=C(CN1CCN(c2cccc(C(F)(F)F)n2)CC1)c1ccc(C(=O)Nc2ccccc2N)cc1 | 0.673 µM and 0.21 µM | 12.2 µM and 2.19 µM | 1.13 µM and 0.578 µM | 31.2 µM and > 100 µM | 0.403 µM and 0.397 µM | – | 0.278 µM | > 100 µM | 0.528 µM and 0.416 µM | > 100 µM | 5.65 µM and 0.851 µM | 41.5 µM and > 58 µM | 8.37 µM and 1.41 µM | > 100 µM | 2.01 µM and 0.365 µM | 26.9 µM and 7.29 µM | 0.27 µM and 0.205 µM | 2.26 µM and 0.767 µM | 9.63 µM | > 100 µM
6 | C=C(C)[C@@H]1CC[C@]2(C(=O)O)CC[C@]3(C)[C@H](CC[C@@H]4[C@@]5(C)CCC(NC(=O)c6cccc(OC(C)=O)c6OC(C)=O)C(C)(C)[C@@H]5CC[C@]43C)[C@@H]12 (some centres not stated) | 0.452 µM | 5.44 µM | 0.78 µM | 11.9 µM | 0.48 µM | 1.67 µM | 0.585 µM | 18.9 µM | – | – | 0.981 µM | 4.02 µM | 0.507 µM | > 100 µM | 0.604 µM | 5.34 µM | 0.382 µM | 1.61 µM | 1.57 µM | 4.51 µM
